Laboratory results reported in article PMC10042540, “Targeting oncogenic KRasG13C with nucleotide-based covalent inhibitors” (eLife, 2023).

How the values were obtained:
[1] = test system: nucleotide-free KRas; test: Stopped-flow competition with mantdGDP (association kinetics); format: binding; conditions: for kon: 25 °C, 1 µM KRas, 2 µM mantdGDP, 1, 2, 6 µM competing nucleotide, global fit
Procedure: The association kinetics of the nucleotide analogues were analyzed with a SX-20 stopped-flow instrument (Applied Photophysics) at 25 °C in a buffer consisting of 25 mM HEPES (pH 7.5), 100 mM NaCl, 1 mM MgCl2, and 0.5 mM TCEP. 1 µM of nucleotide-free KRas ([Müller et al., 2017]) in one syringe was mixed rapidly with 2 µM mantdGDP in the other. In subsequent experiments, the second syringe contained competing nucleotides (1, 2, and 6 µM) in addition to 2 µM mantdGDP. The resulting progress curves were globally fit using KinTek Explorer to obtain the corresponding association rate constants as previously described (Table 1—source data 1, Table 1—source data 2 [Johnson et al., 2009]).

[2] = molecular target: KRas; set-up: method as in Jeganathan et al., 2018; conditions: reference value for GDP; ref Jeganathan et al., 2018; cited from earlier work
[3] = molecular target: KRasWT1-169 (Homo sapiens, UniProt P01116); test: HPLC-based approach for determination of affinities relative to GDP; format: binding; conditions: KA = KA(GDP) x KrelA; GDP from KA = 1/KD
Procedure: The relative affinities of the nucleotide analogues were measured using an HPLC-based approach. 50 μM of […] was mixed with 50 μM of the acetamide derivatives and incubated either for 7 days at room temperature in the absence of EDTA, for 24 hr at 4 °C in the presence of 10 mM EDTA, or for 1 hr at room temperature in the presence of SOS in a buffer consisting of 20 mM HEPES (pH 7.5), 100 mM NaCl, 2 mM MgCl2, 1 mM TCEP and 5% glycerol. After incubation, the Ras proteins were washed five times with buffer (15 mL) using centrifugal filter devices to remove any unbound nucleotide, concentrated and analysed by isocratic HPLC runs. The resulting curves were analysed by integrating the corresponding peaks for GDP and the guanosine nucleotide analogues after distinct time points using the Agilent ChemStation Software (Table 1-source data 3, Table 1-source data 4). Based on the percentage distribution determined by the HPLC assay, the relative association constants (KrelA) for […] and bdaGDP could subsequently be calculated. In contrast, the superposition of the GDP signal prevented an exact determination of the relative association constant for […] values of 0.34 and 0.28 relative to GDP were determined for […] and bdaGDP, respectively. […] By rearranging the equilibrium reactions listed in (Equation 1a) and (Equation 1b), the following relationships are obtained for KGDP (Equation 2a) and […] Assuming that the concentration for aGDP used in the HPLC assay is 50 μM, the following GDP concentrations for […] (Equation 3a) and bdaGDP (Equation 3b) can be determined at time t=0 hr using the percentages determined in Table 1-source data 3:(3a) GDPtotal=%GDP/%[…]=37%/63%×50μM=29.4μM (3b) GDPtotal=%GDP/%bdaGDP=43%/57%×50μM=37.7μM The concentrations of the components listed in equation (Equation 2b) can be calculated as follows for […] (Equation 4a, Equation 4b, Equation 4c, Equation 4d) and bdaGDP (Equation 5a, Equation 5b, Equation 5c, Equation 5d) by considering the total GDP concentrations calculated previously:(4[…]]=47/100×29.4μM=13.8μM (4b) [Ras:GDP]=53/100×29.4μM=15.6μ[…]]=50μM-13.8μM=36.2μM (4d) [GDP]=29.4μM-15.6μM=13.8μM (5a) [Ras:bdaGDP]=39.5/100×37.7μM=14.9μM (5b) [Ras:GDP]=60.5/100×37.7μM=22.8μM (5c) [bdaGDP]=50μM-14.9μM=35.1μM (5d) [GDP]=37.7μM-22.8μM=14.9μM The relative association constant KrelA can be calculated by the following formula (Equation 6):(6) […] By inserting the concentrations of each component determined from (Equation 4a, Equation 4b, Equation 4c, Equation 4d) and (Equation 5a, Equation 5b, Equation 5c, Equation 5d) into (Equation 6), the relative association constants KrelA for […] (Equation 10a) and […]=1/0.136pM^-1=7.4pM (10b) KDbdaGDP=1/0.112pM^-1=8.9pM

[4] = test system: Rab21; test: Covalent modification of protein controlled by ESI-MS; format: binding; conditions: compared to KRasG13C
[5] = test system: T1, KRasG13C1-169 (Cys-light); test: as above; format: binding
T1 construct: KRasWT1-169 and KRasG13C1-169 Cys-light (C51S C80L C118S) were expressed in BL21 (DE3) E. coli; hexahistidine (TEV site) (N, cleaved yes); made in house; host or cells: E. coli BL21 (DE3)
Procedure: After incubation at room temperature for the appropriate time, the modification of the protein was controlled by ESI-MS. For covalent modification of full-length KRasG13C, a nucleotide exchange with a 10-fold excess of the acryl-bearing nucleotides at pH 7.5 was first performed following incubation at room temperature for 24 h at pH 9.5 for covalent protein modification. Covalent protein modification was controlled by ESI-MS. The MS spectra were recorded on a VelosPro IonTrap (Thermo Scientific) with an EC 50/3 Nucleodur C18 1.8 μm column (Macherey and Nagel) and a gradient of the mobile phase A (0.1% formic acid in water) to B (0.1% formic acid in acetonitrile).

KRasWT1-169, sequence (P01116 1-169): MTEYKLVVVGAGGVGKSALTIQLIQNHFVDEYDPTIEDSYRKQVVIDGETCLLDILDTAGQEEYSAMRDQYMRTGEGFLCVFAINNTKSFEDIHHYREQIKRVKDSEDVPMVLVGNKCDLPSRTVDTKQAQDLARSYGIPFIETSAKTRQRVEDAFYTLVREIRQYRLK

Nc1nc2c(ncn2[C@@H]2O[C@H](COP(=O)(O)OP(=O)(O)O)[C@@H](O)[C@H]2O)c(=O)[nH]1 [GDP, reference compound]
kon [1]: 4.22 µM^–1s^–1 | koff ([1]; calculated kinetic parameter): 1.1x10^–5 s^–1 | Kd [2]: 2.5 pM | KA [3]: 0.4 pM⁻¹

C=CC(=O)NCCNC(=O)O[C@H]1[C@@H](O)[C@H](n2cnc3c(=O)[nH]c(N)nc32)O[C@@H]1COP(=O)(O)OP(=O)(O)O [edaGDP]
kon [1]: 3.73 µM^–1s^–1 | covalent modification of Rab21 [4]: comparable to KRasG13C | covalent labelling of KRasG13C1-169 (Cys-light) ([5]; pH 7.5, after 24 hr): slight labelling | covalent labelling of KRasG13C1-169 (Cys-light) ([5]; pH 9.5, after 24 hr): ~100%
